{"source": "paper PMC11237035", "about": "“Glutathione determines chronic myeloid leukemia vulnerability to an inhibitor of CMPK and TMPK” (Communications Biology, 2024)", "assay_type_in_all_cases": "cell-based, mouse", "key": {"[1]": {"tested_on": "T315I-Bcr-Abl-32D cells", "test": "dTTP/dCTP pools by RCA-qPCR in T315I-Bcr-Abl-32D cells", "conditions": "T315I-Bcr-Abl-32D cells, combinatory treatment of UK-5099 with JMF4073", "method": "The methanol extracts were centrifuged\nFor chloroform extraction, same volume of\nattomol of the annealed template-primer.\nThe RCA products were determined by\nThe thiophenol compound 3 was\n(98.5%) after silica gel chromatography."}, "[2]": {"tested_on": "untransformed 32D cells", "test": "CCK-8 cell viability assay, untransformed 32D cells", "conditions": "for viability (vehicle, 0 = 100): 32D cells, 72 h, no BSO; for viability (vehicle, 0 = 100) / viability (0 = 100): single replicates; for viability (0 = 100): Untransformed", "method": "After 72 h, viability assays were performed.\n3 independent experiments. Asterisks denote ***p<0.001 from non-paired two-tailed"}, "[3]": {"tested_on": "WT-Bcr-Abl-32D cells", "test": "CCK-8 cell viability assay, WT-Bcr-Abl-32D cells", "conditions": "for viability (0 = 100): single replicates"}, "[4]": {"tested_on": "T315I-Bcr-Abl-32D cells", "test": "CCK-8 cell viability assay, T315I-Bcr-Abl-32D cells", "conditions": "for cell viability (% of NT, 0 JMF4073), Figure 5e / cell viability (% of 0 JMF4073), Figure 5b: T315I; for cell viability (% of NT, 0 JMF4073), Figure 5e: NT (no BSO)"}}, "note": "Values joined by “and” are separate entries in the source; they are usually repeats but may differ in a detail not shown here. Identical values can stand only once. Like-named read-outs stand apart in the source and are kept apart here."}
{"smiles": "CC(C)(C)OC(=O)N1CCN(C(=O)Cn2sc3ccc(F)cc3c2=O)CC1", "note": "[JMF4073, Tert-butyl 4-(2-(5-fluoro-3-oxobenzo[d]isothiazol-2(3H)-yl)acetyl) piperazine-1-carboxylate]", "values": [{"measurement": "dCTP pool", "setting": "[1]", "value": "exhaustion"}, {"measurement": "dTTP pool", "setting": "[1]", "value": "exhaustion"}, {"measurement": "viability (vehicle, 0 = 100)", "setting": "[2]; JMF4073 0.5 mM (so in the source)", "value": "108 and 88"}, {"measurement": "viability (vehicle, 0 = 100)", "setting": "[2]; JMF4073 1.25 mM (so in the source)", "value": "86 and 80"}, {"measurement": "viability (vehicle, 0 = 100)", "setting": "[2]; JMF4073 2.5 mM (so in the source)", "value": "70 and 71.46"}, {"measurement": "growth of cells, BSO in combination with JMF4073", "setting": "[2]; 32D myeloid progenitor cells", "value": "severely suppressed the growth"}, {"measurement": "GI50", "setting": "[2]; Mus musculus, untransformed 32D cells, viability", "value": 4200, "unit": "nM"}, {"measurement": "viability (0 = 100)", "setting": "[2]; JMF4073 1 mM (so in the source)", "value": "80.74 and 95.63 and 110"}, {"measurement": "viability (0 = 100)", "setting": "[2]; JMF4073 2 mM (so in the source)", "value": "67.24 and 95.4 and 71"}, {"measurement": "viability (0 = 100)", "setting": "[2]; JMF4073 5 mM (so in the source)", "value": "26.41 and 55.58 and 32"}, {"measurement": "GI50", "setting": "[3]; Mus musculus, WT-Bcr-Abl-32D cells, viability", "value": 670, "unit": "nM"}, {"measurement": "viability (0 = 100)", "setting": "[3]; WT-Bcr-Abl, JMF4073 1 mM (so in the source)", "value": "5 and 32.8138 and 24"}, {"measurement": "viability (0 = 100)", "setting": "[3]; WT-Bcr-Abl, JMF4073 2 mM (so in the source)", "value": "1 and 9.014 and 19"}, {"measurement": "viability (0 = 100)", "setting": "[3]; WT-Bcr-Abl, JMF4073 5 mM (so in the source)", "value": "-1.08 and 0.13 and 0"}, {"measurement": "cell viability (% of NT vehicle), Figure 5h", "setting": "[3]; WT-Bcr-Abl, NT (no NAC), JMF4073, single replicates", "value": "28.4633 and 15.0339 and 2.584"}, {"measurement": "JMF4073 sensitivity after NAC treatment", "setting": "[3]; WT-Bcr-Abl-32D cells, NAC 1 mM + JMF4073 0.5 μM, 72 h", "value": "insensitive to JMF4073"}, {"measurement": "viability at 1000 µM", "setting": "[4]; Mus musculus, T315I-Bcr-Abl, JMF4073 1 mM (so in the source), single replicates, read-out: viability (0 = 100)", "value": 69, "unit": "%"}, {"measurement": "viability at 500 µM", "setting": "[4]; Mus musculus, T315I-Bcr-Abl, NT (no UK-5099), JMF4073 0.5 mM as printed, replicates, read-out: Figure 6c, viability relative to NT (=100)", "value": 80.7, "unit": "%"}, {"measurement": "viability at 1250 µM", "setting": "[4]; Mus musculus, T315I-Bcr-Abl, NT (no UK-5099), JMF4073 1.25 mM as printed, replicates, read-out: Figure 6c, viability relative to NT (=100)", "value": 43, "unit": "%"}, {"measurement": "viability at 500 µM", "setting": "[4]; Mus musculus, read-out: cell viability (% of 0 JMF4073), Figure 5b, T315I, shLacZ, JMF4073 0.5 mM (so in the source), single replicates", "value": 78.6, "unit": "%"}, {"measurement": "viability at 2500 µM", "setting": "[4]; Mus musculus, read-out: cell viability (% of 0 JMF4073), Figure 5b, T315I, shLacZ, JMF4073 2.5 mM (so in the source), single replicates", "value": 15.5, "unit": "%"}, {"measurement": "viability at 500 µM", "setting": "[4]; Mus musculus, read-out: cell viability (% of 0 JMF4073), Figure 5b, T315I, shSHMT2, JMF4073 0.5 mM (so in the source), single replicates", "value": 71.4, "unit": "%"}, {"measurement": "viability at 1250 µM", "setting": "[4]; Mus musculus, read-out: cell viability (% of 0 JMF4073), Figure 5b, T315I, shSHMT2, JMF4073 1.25 mM (so in the source), single replicates", "value": 52.1, "unit": "%"}, {"measurement": "viability at 2500 µM", "setting": "[4]; Mus musculus, read-out: cell viability (% of 0 JMF4073), Figure 5b, T315I, shSHMT2, JMF4073 2.5 mM (so in the source), single replicates", "value": 14.5, "unit": "%"}, {"measurement": "viability at 500 µM", "setting": "[4]; Mus musculus, read-out: cell viability (% of NT, 0 JMF4073), Figure 5e, T315I, NT (no BSO), JMF4073 0.5 mM (so in the source), single replicates", "value": 88, "unit": "%"}, {"measurement": "viability at 1250 µM", "setting": "[4]; Mus musculus, read-out: cell viability (% of NT, 0 JMF4073), Figure 5e, T315I, NT (no BSO), JMF4073 1.25 mM (so in the source), single replicates", "value": 64, "unit": "%"}, {"measurement": "GI50", "setting": "[4]; Mus musculus, T315I-Bcr-Abl-32D cells, viability", "value": 1500, "unit": "nM"}, {"measurement": "cell viability (% of NT, 0 JMF4073), Figure 5e", "setting": "[4]; JMF4073 0.5 mM (so in the source), single replicates", "value": "86.2452 and 88.0302"}, {"measurement": "cell viability (% of NT, 0 JMF4073), Figure 5e", "setting": "[4]; JMF4073 1.25 mM (so in the source), single replicates", "value": "67.023 and 70.4858"}, {"measurement": "cell viability (% of NT, 0 JMF4073), Figure 5e", "setting": "[4]; JMF4073 2.5 mM (so in the source), single replicates", "value": "17 and 12.279 and 45.0063"}, {"measurement": "cell viability (% of 0 JMF4073), Figure 5b", "setting": "[4]; shLacZ, JMF4073 0.5 mM (so in the source), single replicates", "value": 80.777}, {"measurement": "cell viability (% of 0 JMF4073), Figure 5b", "setting": "[4]; shLacZ, JMF4073 1.25 mM (so in the source), single replicates", "value": "68.6184 and 53.2629"}, {"measurement": "cell viability (% of 0 JMF4073), Figure 5b", "setting": "[4]; shLacZ, JMF4073 2.5 mM (so in the source), single replicates", "value": 11.7008}, {"measurement": "cell viability (% of 0 JMF4073), Figure 5b", "setting": "[4]; shSHMT2, JMF4073 0.5 mM (so in the source), single replicates", "value": 67.1231}, {"measurement": "cell viability (% of 0 JMF4073), Figure 5b", "setting": "[4]; shSHMT2, JMF4073 1.25 mM (so in the source), single replicates", "value": 37.9395}, {"measurement": "cell viability (% of 0 JMF4073), Figure 5b", "setting": "[4]; shSHMT2, JMF4073 2.5 mM (so in the source), single replicates", "value": 11.3951}, {"measurement": "viability (0 = 100)", "setting": "[4]; T315I-Bcr-Abl, JMF4073 1 mM (so in the source), single replicates", "value": "70 and 66.4746"}]}
